#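 Growth conditions: 96-well plates. Treatment: test compound, 48 hours, 5 concentrations. Analysis: linear interpolation between bracketing concentrations; unreached endpoints set to highest concentration. At the TGI there is no net growth.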
# Key:
# Assay in all cases: growth of human tumour cells (NCI), 48 h
# [1] = tested on: HOP-62 NSCLC
# [2] = tested on: MCF7 breast
# [3] = tested on: HCT-116 colon
# [4] = tested on: COLO 205 colon
# [5] = tested on: OVCAR-5 ovarian
# [6] = tested on: A498 renal
# [7] = tested on: MDA-MB-231 breast
# [8] = tested on: SNB-75 CNS
# [9] = tested on: U251 CNS
# [10] = tested on: SR leukemia
# [11] = tested on: OVCAR-3 ovarian
# [12] = tested on: BT-549 breast
# [13] = tested on: SK-MEL-2 melanoma
# [14] = tested on: UO-31 renal
# [15] = tested on: MOLT-4 leukemia
# [16] = tested on: 786-0 renal
# [17] = tested on: RPMI-8226 leukemia
# [18] = tested on: NCI/ADR-RES ovarian
# [19] = tested on: UACC-257 melanoma
# [20] = tested on: OVCAR-4 ovarian
# [21] = tested on: CCRF-CEM leukemia
# [22] = tested on: SF-539 CNS
# [23] = tested on: NCI-H522 lung
# [24] = tested on: K-562 leukemia
# [25] = tested on: ACHN renal
# [26] = tested on: HCC-2998 colon
# [27] = tested on: NCI-H460 lung
# [28] = tested on: SNB-19 CNS
# [29] = tested on: NCI-H23 lung
# [30] = tested on: IGROV1 ovarian
# [31] = tested on: KM12 colon
# [32] = tested on: A549 NSCLC
# [33] = tested on: HOP-92 NSCLC
# [34] = tested on: MDA-MB-435
# [35] = tested on: SK-MEL-28 melanoma
# [36] = tested on: SN12C renal
# [37] = tested on: SW-620 colon
# [38] = tested on: RXF 393 renal
# [39] = tested on: CAKI-1 renal
# [40] = tested on: SK-MEL-5 melanoma
# [41] = tested on: SF-295 CNS
# [42] = tested on: SF-268 CNS
# [43] = tested on: LOX IMVI melanoma
# [44] = tested on: NCI-H226 lung
# [45] = tested on: EKVX NSCLC
# [46] = tested on: HT29 colon
# [47] = tested on: T-47D breast
# [48] = tested on: UACC-62 melanoma
# [49] = tested on: TK-10 renal
# [50] = tested on: HS 578T breast
# [51] = tested on: DU-145 prostate
# [52] = tested on: SK-OV-3 ovarian
# [53] = tested on: MALME-3M melanoma
# [54] = tested on: HCT-15 colon
# [55] = tested on: MDA-N
# [56] = tested on: PC-3 prostate
# [57] = tested on: M14 melanoma
# [58] = tested on: HL-60(TB) leukemia
# [59] = tested on: OVCAR-8 ovarian
structure (smiles),measurement,setting,value
CN(C)CCCNc1c2c(nc3ccc(Cl)cc13)CCCC2,TGI,[1],30.5 µM
same,TGI,[2],25.5 µM
same,TGI,[3],21.5 µM
same,TGI,[4],21.5 µM
same,TGI,[5],49 µM
same,TGI,[6],32.6 µM
same,TGI,[7],31.2 µM
same,TGI,[8],30.8 µM
same,TGI,[9],30.1 µM
same,TGI,[10],6.88 µM
same,TGI,[11],34.9 µM
same,TGI,[12],43.7 µM
same,TGI,[13],34.5 µM
same,TGI,[14],28 µM
same,TGI,[15],20.8 µM
same,TGI,[16],23.1 µM
same,TGI,[17],28.7 µM
same,TGI,[18],45 µM
same,TGI,[19],30.7 µM
same,TGI,[20],43.8 µM
same,TGI,[21],43.7 µM
same,TGI,[22],28.5 µM
same,TGI,[23],26.8 µM
same,TGI,[24],12 µM
same,TGI,[25],45.5 µM
same,TGI,[26],16.3 µM
same,TGI,[27],23.9 µM
same,TGI,[28],49.4 µM
same,TGI,[29],30.6 µM
same,TGI,[30],37.5 µM
same,TGI,[31],30.8 µM
same,TGI,[32],39.6 µM
same,TGI,[33],27.8 µM
same,TGI,[34],32.3 µM
same,TGI,[35],35.3 µM
same,TGI,[36],28.9 µM
same,TGI,[37],31.8 µM
same,TGI,[38],28.6 µM
same,TGI,[39],65.4 µM
same,TGI,[40],27.8 µM
same,TGI,[41],29.7 µM
same,TGI,[42],28.6 µM
same,TGI,[43],27.3 µM
same,TGI,[44],49.7 µM
same,TGI,[45],38.3 µM
same,TGI,[46],23.2 µM
same,TGI,[47],> 73 µM
same,TGI,[48],32.1 µM
same,TGI,[49],36.4 µM
same,TGI,[50],40.6 µM
same,TGI,[51],31.9 µM
same,TGI,[52],66.2 µM
same,TGI,[53],29.7 µM
same,TGI,[54],32.4 µM
same,TGI,[55],26.9 µM
same,TGI,[56],32.8 µM
same,TGI,[57],28.1 µM
same,TGI,[58],40.1 µM
same,TGI,[59],32.9 µM
CCOC(=O)NN(C(=O)OCC)C(=C(c1ccccc1)N1CCOCC1)N(NC(=O)OCC)C(=O)OCC,TGI,[1],> 100 µM
same,TGI,[2],> 100 µM
same,TGI,[3],> 100 µM
same,TGI,[4],> 100 µM
same,TGI,[5],> 100 µM
same,TGI,[6],> 100 µM
same,TGI,[7],> 100 µM
same,TGI,[8],> 100 µM
same,TGI,[9],> 100 µM
same,TGI,[10],> 100 µM
same,TGI,[11],> 100 µM
same,TGI,[12],> 100 µM
same,TGI,[13],> 100 µM
same,TGI,[14],> 100 µM
same,TGI,[15],> 100 µM
same,TGI,[16],> 100 µM
same,TGI,[17],> 100 µM
same,TGI,[18],> 100 µM
same,TGI,[19],> 100 µM
same,TGI,[20],> 100 µM
same,TGI,[21],> 100 µM
same,TGI,[22],> 100 µM
same,TGI,[23],> 100 µM
same,TGI,[24],> 100 µM
same,TGI,[25],> 100 µM
same,TGI,[26],> 100 µM
same,TGI,[27],> 100 µM
same,TGI,[28],> 100 µM
same,TGI,[29],> 100 µM
same,TGI,[30],> 100 µM
same,TGI,[31],> 100 µM
same,TGI,[32],> 100 µM
same,TGI,[33],> 100 µM
same,TGI,[34],> 100 µM
same,TGI,[35],> 100 µM
same,TGI,[36],> 100 µM
same,TGI,[37],> 100 µM
same,TGI,[38],> 100 µM
same,TGI,[39],> 100 µM
same,TGI,[40],> 100 µM
same,TGI,[41],> 100 µM
same,TGI,[42],> 100 µM
same,TGI,[43],> 100 µM
same,TGI,[44],> 100 µM
same,TGI,[45],> 100 µM
same,TGI,[46],> 100 µM
same,TGI,[47],> 100 µM
same,TGI,[48],> 100 µM
same,TGI,[49],> 100 µM
same,TGI,[50],> 100 µM
same,TGI,[51],> 100 µM
same,TGI,[52],> 100 µM
same,TGI,[53],> 100 µM
same,TGI,[54],> 100 µM
same,TGI,[55],> 100 µM
same,TGI,[56],> 100 µM
same,TGI,[57],> 100 µM
same,TGI,[58],> 100 µM
same,TGI,[59],> 100 µM

# — PubChem BioAssay (NCI)
